Results as given in ChEMBL document CHEMBL1158070, “Gymnastatins F-H, cytostatic metabolites from the sponge-derived fungus Gymnascella dankaliensis” (2006).
Values after ≈ are worked out from the molar mass of the structure shown.

System: P388
Assay: Cytotoxicity against mouse P388 cells
Format: functional
Conditions: read-out: ED50 (the source's name)

First: O=c1[nH]cc(F)c(=O)[nH]1 [FLUOROURACIL]
Second: CCCCCC[C@@H](C)/C=C(C)/C=C/C(=O)N[C@H]1C[C@]2(O)C=C(Cl)C(=O)[C@@](Cl)([C@H]2OC)[C@H]1O [GYMNASTATIN F]
The EC50 of the first is 1.8-fold lower: 0.073 µg/mL (≈ 0.561 µM) for the first, 0.13 µg/mL (≈ 0.266 µM) for the second.

`CCCCCC[C@@H](C)/C=C(C)/C=C/C(N)=O` [GYMNAMIDE] and `CCCCCC[C@@H](C)/C=C(C)/C=C/C(=O)N[C@@H](Cc1ccc(O)cc1)C(=O)OC` [GYMNASTATIN H] cannot be ordered by EC50: > 10 µg/mL for the first, > 10 µg/mL for the second.

For `CCCCCC[C@@H](C)/C=C(C)/C=C/C(=O)N[C@H]1C[C@]2(O)[C@H]3O[C@H]3C(=O)[C@](Cl)([C@H]1O)[C@H]2OC` [GYMNASTATIN G], the EC50 was 0.03 µg/mL (≈ 0.0638 µM).
